Test results published in patent publication US20230074545A1, “TREATMENT OF CANCER WITH CDK12/13 INHIBITORS” (Kinnate Biopharma Inc., priority 2019, published 2023).

Tests used:
Test in all cases: Radiometric kinase panel
Type in all cases: biochemical
ACVR1 = molecular target: T1, ACVR1 (Homo sapiens, UniProt Q04771)
T1 construct: purchased ProQinase GmbH (Reaction Biology)
Procedure, shortened: (§1)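 Activity was measured radiometrically from [gamma-33P]-ATP incorporation into substrate. The kinases were recombinant human GST- or His-tagged proteins, full-length or active fragments, expressed in Sf9 or E. coli. Compound in 10% DMSO was added before the enzyme/substrate mix, which started the reaction.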

CDK6/CycD1 = molecular target: T2, CDK6/CycD1 (Homo sapiens, UniProt Q00534)
T2 construct: purchased ProQinase GmbH (Reaction Biology); host or cells: Sf9 insect cells or E. coli (not specified per kinase)
Procedure, shortened: as §1

CK1gamma2 = molecular target: T3, CK1gamma2 (Homo sapiens, UniProt P78368)
T3 construct: purchased ProQinase GmbH (Reaction Biology)
Procedure, shortened: as §1

CK1gamma3 = molecular target: T4, CK1gamma3 (Homo sapiens, UniProt Q9Y6M4)
T4 construct: either as full-length or enzymatically active fragments; purchased ProQinase GmbH (Reaction Biology)
Procedure, shortened: as §1

CSK = molecular target: T5, CSK (Homo sapiens, UniProt P41240)
T5 construct: either as full-length or enzymatically active fragments; purchased ProQinase GmbH (Reaction Biology)
Procedure, shortened: as §1

DAPK3 = molecular target: T6, DAPK3 (Homo sapiens, UniProt O43293)
T6 construct: purchased ProQinase GmbH (Reaction Biology)
Procedure, shortened: as §1

EPHA1 = molecular target: T7, EPHA1 (Homo sapiens, UniProt P21709)
T7 construct: either as full-length or enzymatically active fragments; purchased ProQinase GmbH (Reaction Biology)
Procedure, shortened: as §1

ERK1 = molecular target: T8, ERK1 (Homo sapiens, UniProt P27361)
T8 construct: either as full-length or enzymatically active fragments; purchased ProQinase GmbH (Reaction Biology)
Procedure, shortened: as §1

ERK5 = molecular target: T9, ERK5 (Homo sapiens, UniProt Q13164)
T9 construct: either as full-length or enzymatically active fragments; purchased ProQinase GmbH (Reaction Biology)
Procedure, shortened: as §1

ERK7 = molecular target: T10, ERK7 (Homo sapiens, UniProt Q8TD08)
T10 construct: either as full-length or enzymatically active fragments; purchased ProQinase GmbH (Reaction Biology)
Procedure, shortened: as §1

FGFR3 = molecular target: T11, FGFR3 (Homo sapiens, UniProt P22607)
T11 construct: either as full-length or enzymatically active fragments; purchased ProQinase GmbH (Reaction Biology); host or cells: Sf9 insect cells or E. coli
Procedure, shortened: as §1

GRK4 = molecular target: T12, GRK4 (Homo sapiens, UniProt P32298)
T12 construct: either as full-length or enzymatically active fragments; purchased ProQinase GmbH (Reaction Biology)
Procedure, shortened: as §1

GRK7 = molecular target: T13, GRK7 (Homo sapiens, UniProt Q8WTQ7)
T13 construct: either as full-length or enzymatically active fragments; purchased ProQinase GmbH (Reaction Biology)
Procedure, shortened: as §1

GSK3alpha = molecular target: T14, GSK3alpha (Homo sapiens, UniProt P49840)
T14 construct: either as full-length or enzymatically active fragments; purchased ProQinase GmbH (Reaction Biology)
Procedure, shortened: as §1

HIPK2 = molecular target: T15, HIPK2 (Homo sapiens, UniProt Q9H2X6)
T15 construct: purchased ProQinase GmbH (Reaction Biology)
Procedure, shortened: as §1

ITK = molecular target: T16, ITK (Homo sapiens, UniProt Q08881)
T16 construct: purchased ProQinase GmbH (Reaction Biology); host or cells: Sf9 insect cells or E. coli (not specified per kinase)
Procedure, shortened: as §1

LIMK2 = molecular target: T17, LIMK2 (Homo sapiens, UniProt P53671)
T17 construct: either as full-length or enzymatically active fragments; purchased ProQinase GmbH (Reaction Biology)
Procedure, shortened: as §1

LRRK2 = molecular target: T18, LRRK2 (Homo sapiens, UniProt Q5S007)
T18 construct: either as full-length or enzymatically active fragments; purchased ProQinase GmbH (Reaction Biology); host or cells: Sf9 insect cells or E. coli
Procedure, shortened: as §1

MAPKAPK2 = molecular target: T19, MAPKAPK2 (Homo sapiens, UniProt P49137)
T19 construct: either as full-length or enzymatically active fragments; purchased ProQinase GmbH (Reaction Biology); host or cells: Sf9 insect cells or E. coli
Procedure, shortened: as §1

MLK4 = molecular target: T20, MLK4 (Homo sapiens, UniProt Q5TCX8)
T20 construct: either as full-length or enzymatically active fragments; purchased ProQinase GmbH (Reaction Biology); host or cells: Sf9 insect cells or E. coli (not specified per kinase)
Procedure, shortened: as §1

NEK1 = molecular target: T21, NEK1 (Homo sapiens, UniProt Q96PY6)
T21 construct: purchased ProQinase GmbH (Reaction Biology)
Procedure, shortened: as §1

NEK7 = molecular target: T22, NEK7 (Homo sapiens, UniProt Q8TDX7)
T22 construct: either as full-length or enzymatically active fragments; purchased ProQinase GmbH (Reaction Biology); host or cells: Sf9 insect cells or E. coli
Procedure, shortened: as §1

PAK1 = molecular target: T23, PAK1 (Homo sapiens, UniProt Q13153)
T23 construct: either as full-length or enzymatically active fragments; purchased ProQinase GmbH (Reaction Biology)
Procedure, shortened: as §1

PHKG2 = molecular target: T24, PHKG2 (Homo sapiens, UniProt P15735)
T24 construct: either as full-length or enzymatically active fragments; purchased ProQinase GmbH (Reaction Biology)
Procedure, shortened: as §1

PKA = molecular target: T25, PKA (Homo sapiens, UniProt P17612)
T25 construct: either as full-length or enzymatically active fragments; purchased ProQinase GmbH (Reaction Biology); host or cells: Sf9 insect cells or E. coli
Procedure, shortened: as §1

PKCbeta1 = molecular target: T26, PKCbeta1 (Homo sapiens, UniProt P05771)
T26 construct: either as full-length or enzymatically active fragments; purchased ProQinase GmbH (Reaction Biology)
Procedure, shortened: as §1

PKMYT1 = molecular target: T27, PKMYT1 (Homo sapiens, UniProt Q99640)
T27 construct: either as full-length or enzymatically active fragments; purchased ProQinase GmbH (Reaction Biology)
Procedure, shortened: as §1

TAOK2 = molecular target: T28, TAOK2 (Homo sapiens, UniProt Q9UL54)
T28 construct: either as full-length or enzymatically active fragments; purchased ProQinase GmbH (Reaction Biology)
Procedure, shortened: as §1

TSF1 = molecular target: T29, TSF1 (Homo sapiens, UniProt O75716)
T29 construct: either as full-length or enzymatically active fragments; purchased ProQinase GmbH (Reaction Biology)
Procedure, shortened: as §1

VRK2 = molecular target: T30, VRK2 (Homo sapiens, UniProt Q86Y07)
T30 construct: either as full-length or enzymatically active fragments; purchased ProQinase GmbH (Reaction Biology); host or cells: Sf9 insect cells or E. coli
Procedure, shortened: as §1

p38alpha = molecular target: T31, p38alpha (Homo sapiens, UniProt Q16539)
T31 construct: either as full-length or enzymatically active fragments; purchased ProQinase GmbH (Reaction Biology)
Procedure, shortened: as §1

T12 sequence (P32298 whole entry, the tested form may be a part): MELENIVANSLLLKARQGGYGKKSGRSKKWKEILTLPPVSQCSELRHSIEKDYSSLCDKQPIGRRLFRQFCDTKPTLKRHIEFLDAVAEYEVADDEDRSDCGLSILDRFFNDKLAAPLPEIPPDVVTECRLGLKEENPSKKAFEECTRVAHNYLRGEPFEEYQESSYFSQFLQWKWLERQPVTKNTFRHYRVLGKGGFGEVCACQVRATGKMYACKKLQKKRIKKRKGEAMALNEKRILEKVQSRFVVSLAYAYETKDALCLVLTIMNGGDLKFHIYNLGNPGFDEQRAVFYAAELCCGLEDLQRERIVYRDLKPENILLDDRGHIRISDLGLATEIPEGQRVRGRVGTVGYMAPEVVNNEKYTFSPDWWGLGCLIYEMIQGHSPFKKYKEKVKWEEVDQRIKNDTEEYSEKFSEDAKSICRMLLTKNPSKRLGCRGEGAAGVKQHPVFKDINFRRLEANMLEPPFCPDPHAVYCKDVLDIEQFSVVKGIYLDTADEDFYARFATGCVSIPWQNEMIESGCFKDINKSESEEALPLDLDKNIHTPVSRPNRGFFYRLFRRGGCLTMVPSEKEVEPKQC
T24 sequence (P15735 whole entry, the tested form may be a part): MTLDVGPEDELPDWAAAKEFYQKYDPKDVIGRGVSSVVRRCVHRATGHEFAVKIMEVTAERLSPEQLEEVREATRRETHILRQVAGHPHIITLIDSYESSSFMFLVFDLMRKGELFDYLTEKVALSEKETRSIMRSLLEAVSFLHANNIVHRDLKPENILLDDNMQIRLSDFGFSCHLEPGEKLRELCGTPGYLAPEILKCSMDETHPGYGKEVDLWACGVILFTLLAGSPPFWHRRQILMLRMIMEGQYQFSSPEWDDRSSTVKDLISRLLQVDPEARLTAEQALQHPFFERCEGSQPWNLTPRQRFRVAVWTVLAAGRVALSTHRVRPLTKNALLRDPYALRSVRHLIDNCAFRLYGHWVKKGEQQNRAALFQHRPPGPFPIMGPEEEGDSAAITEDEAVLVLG
T4 sequence (Q9Y6M4 whole entry, the tested form may be a part): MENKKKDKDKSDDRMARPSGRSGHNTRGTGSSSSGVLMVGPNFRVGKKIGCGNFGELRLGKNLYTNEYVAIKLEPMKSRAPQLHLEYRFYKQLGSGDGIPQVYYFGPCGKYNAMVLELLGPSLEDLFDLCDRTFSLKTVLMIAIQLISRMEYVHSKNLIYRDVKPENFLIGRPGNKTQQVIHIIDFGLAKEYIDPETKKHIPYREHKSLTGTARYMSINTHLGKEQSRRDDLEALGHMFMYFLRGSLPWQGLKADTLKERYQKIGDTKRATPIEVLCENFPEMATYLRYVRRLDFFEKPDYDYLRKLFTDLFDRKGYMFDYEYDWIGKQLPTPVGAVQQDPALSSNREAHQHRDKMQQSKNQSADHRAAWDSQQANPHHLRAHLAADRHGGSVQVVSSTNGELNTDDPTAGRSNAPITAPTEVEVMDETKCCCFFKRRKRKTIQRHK
T10 sequence (Q8TD08 whole entry, the tested form may be a part): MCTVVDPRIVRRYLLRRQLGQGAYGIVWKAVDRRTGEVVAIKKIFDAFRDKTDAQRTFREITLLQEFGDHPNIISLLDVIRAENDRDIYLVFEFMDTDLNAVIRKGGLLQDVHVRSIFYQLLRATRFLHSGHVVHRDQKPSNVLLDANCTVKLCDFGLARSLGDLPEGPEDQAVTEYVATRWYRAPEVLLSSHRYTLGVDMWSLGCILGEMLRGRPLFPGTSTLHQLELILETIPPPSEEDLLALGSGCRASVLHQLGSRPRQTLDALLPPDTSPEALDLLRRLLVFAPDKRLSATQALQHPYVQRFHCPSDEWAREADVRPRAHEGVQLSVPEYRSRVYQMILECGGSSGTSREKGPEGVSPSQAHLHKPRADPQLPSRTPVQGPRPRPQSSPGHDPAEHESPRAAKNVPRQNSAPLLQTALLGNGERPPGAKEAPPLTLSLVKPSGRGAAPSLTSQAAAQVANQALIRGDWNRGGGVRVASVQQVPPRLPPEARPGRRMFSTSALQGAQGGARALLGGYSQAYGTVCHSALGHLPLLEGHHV
T17 sequence (P53671 whole entry, the tested form may be a part): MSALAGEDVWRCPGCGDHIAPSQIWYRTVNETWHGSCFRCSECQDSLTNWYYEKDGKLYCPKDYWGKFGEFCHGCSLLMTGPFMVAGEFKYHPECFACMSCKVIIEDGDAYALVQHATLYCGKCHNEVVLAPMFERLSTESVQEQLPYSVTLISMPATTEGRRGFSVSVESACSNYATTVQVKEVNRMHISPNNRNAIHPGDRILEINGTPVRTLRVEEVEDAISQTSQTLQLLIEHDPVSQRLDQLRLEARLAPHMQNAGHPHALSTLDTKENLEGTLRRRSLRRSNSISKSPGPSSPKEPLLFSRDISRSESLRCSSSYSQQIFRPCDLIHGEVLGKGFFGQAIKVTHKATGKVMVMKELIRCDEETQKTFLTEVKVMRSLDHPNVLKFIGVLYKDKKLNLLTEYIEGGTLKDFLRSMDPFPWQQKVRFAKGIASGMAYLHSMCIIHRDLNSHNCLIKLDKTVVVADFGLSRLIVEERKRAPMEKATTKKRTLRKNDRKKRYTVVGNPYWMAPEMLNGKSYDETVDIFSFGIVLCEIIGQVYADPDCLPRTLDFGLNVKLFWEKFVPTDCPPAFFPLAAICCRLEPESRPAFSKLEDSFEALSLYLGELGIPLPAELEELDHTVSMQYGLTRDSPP
T22 sequence (Q8TDX7 whole entry, the tested form may be a part): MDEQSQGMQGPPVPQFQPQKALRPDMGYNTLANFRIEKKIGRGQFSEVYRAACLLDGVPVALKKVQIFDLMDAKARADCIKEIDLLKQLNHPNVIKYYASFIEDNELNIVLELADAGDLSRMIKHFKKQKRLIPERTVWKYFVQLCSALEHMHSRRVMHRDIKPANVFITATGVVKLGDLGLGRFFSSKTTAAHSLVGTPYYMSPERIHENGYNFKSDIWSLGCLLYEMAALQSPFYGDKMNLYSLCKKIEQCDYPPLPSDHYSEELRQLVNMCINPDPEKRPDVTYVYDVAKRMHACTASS
T31 sequence (Q16539 whole entry, the tested form may be a part): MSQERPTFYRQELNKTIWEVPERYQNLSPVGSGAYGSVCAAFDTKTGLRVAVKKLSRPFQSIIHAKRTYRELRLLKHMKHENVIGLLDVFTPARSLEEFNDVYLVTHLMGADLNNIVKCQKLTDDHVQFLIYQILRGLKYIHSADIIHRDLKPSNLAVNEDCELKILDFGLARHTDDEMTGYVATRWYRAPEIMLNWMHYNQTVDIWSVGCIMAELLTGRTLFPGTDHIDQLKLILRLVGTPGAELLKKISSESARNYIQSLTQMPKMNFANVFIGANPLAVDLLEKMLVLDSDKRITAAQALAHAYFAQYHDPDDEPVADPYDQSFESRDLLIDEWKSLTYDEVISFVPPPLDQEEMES
T20 sequence (Q5TCX8 whole entry, the tested form may be a part): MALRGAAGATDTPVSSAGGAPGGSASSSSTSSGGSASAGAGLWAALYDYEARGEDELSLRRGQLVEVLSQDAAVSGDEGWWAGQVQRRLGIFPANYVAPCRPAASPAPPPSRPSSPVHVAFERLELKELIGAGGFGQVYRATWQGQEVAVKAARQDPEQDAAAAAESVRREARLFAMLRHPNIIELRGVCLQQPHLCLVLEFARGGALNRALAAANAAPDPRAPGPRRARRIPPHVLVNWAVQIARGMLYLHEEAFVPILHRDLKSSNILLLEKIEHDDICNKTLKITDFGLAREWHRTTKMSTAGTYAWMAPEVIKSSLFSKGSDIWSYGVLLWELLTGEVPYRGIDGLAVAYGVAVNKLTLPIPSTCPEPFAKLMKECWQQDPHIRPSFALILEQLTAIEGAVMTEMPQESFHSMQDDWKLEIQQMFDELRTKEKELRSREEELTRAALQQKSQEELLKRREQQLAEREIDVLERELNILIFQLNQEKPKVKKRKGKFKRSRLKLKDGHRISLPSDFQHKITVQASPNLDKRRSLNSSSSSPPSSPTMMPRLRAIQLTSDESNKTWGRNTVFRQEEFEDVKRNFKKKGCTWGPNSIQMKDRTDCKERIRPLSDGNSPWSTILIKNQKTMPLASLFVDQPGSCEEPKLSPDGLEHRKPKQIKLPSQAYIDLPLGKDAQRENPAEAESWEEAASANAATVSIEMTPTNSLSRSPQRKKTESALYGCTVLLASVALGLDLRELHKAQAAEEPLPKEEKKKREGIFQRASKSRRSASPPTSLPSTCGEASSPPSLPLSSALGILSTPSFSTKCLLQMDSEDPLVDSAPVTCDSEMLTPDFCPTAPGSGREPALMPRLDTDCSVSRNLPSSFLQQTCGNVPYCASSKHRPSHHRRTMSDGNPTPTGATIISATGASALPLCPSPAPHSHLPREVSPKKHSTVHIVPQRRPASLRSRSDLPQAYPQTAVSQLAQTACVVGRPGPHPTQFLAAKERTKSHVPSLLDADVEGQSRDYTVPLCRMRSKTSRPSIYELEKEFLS
T13 sequence (Q8WTQ7 whole entry, the tested form may be a part): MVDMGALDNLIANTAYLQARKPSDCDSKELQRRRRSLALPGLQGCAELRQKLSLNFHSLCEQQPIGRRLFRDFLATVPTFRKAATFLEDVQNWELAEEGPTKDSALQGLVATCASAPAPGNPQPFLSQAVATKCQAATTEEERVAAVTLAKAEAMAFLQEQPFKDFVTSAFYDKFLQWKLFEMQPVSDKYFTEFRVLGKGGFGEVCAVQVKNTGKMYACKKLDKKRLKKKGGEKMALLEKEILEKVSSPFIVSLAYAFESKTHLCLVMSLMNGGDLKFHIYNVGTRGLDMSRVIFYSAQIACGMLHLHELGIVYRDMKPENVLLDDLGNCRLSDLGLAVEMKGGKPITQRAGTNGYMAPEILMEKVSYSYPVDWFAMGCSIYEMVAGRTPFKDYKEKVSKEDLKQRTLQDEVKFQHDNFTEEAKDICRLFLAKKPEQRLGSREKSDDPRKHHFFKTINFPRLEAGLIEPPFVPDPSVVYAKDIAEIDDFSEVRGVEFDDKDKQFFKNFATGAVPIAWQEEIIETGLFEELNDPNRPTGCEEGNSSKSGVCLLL

With `C=CC(=O)Nc1ccc(C(=O)N2CC[C@@H](Nc3ncc(C#N)cn3)C2)cc1` [Compound 4, (R)-N-(4-(3-((5-cyanopyrimidin-2-yl)amino)pyrrolidine-1-carbonyl)phenyl)acrylamide] the inhibition at 1 µM (ACVR1) was -1%, the inhibition at 1 µM (CDK6/CycD1) was 1% and the inhibition at 1 µM (CK1gamma2) was -1%. For the same molecule, the inhibition at 1 µM (CK1gamma3) was -8%, the inhibition at 1 µM (CSK) was 7% and the inhibition at 1 µM (DAPK3) was 0%. It also gave an inhibition at 1 µM (EPHA1) of 3%, an inhibition at 1 µM (ERK1) of -4% and an inhibition at 1 µM (ERK5) of 6%. The inhibition at 1 µM (ERK7) was 17%, the inhibition at 1 µM (FGFR3) was -16% and the inhibition at 1 µM (GRK4) was -13%. For the same molecule, the inhibition at 1 µM (GRK7) was -5%, the inhibition at 1 µM (GSK3alpha) was 6% and the inhibition at 1 µM (HIPK2) was 0%. It also gave an inhibition at 1 µM (ITK) of 1%, an inhibition at 1 µM (LIMK2) of -3% and an inhibition at 1 µM (LRRK2) of -14%. It also gave an inhibition at 1 µM (MAPKAPK2) of -24%, an inhibition at 1 µM (MLK4) of 9% and an inhibition at 1 µM (NEK1) of 0%. It also gave an inhibition at 1 µM (NEK7) of -15%, an inhibition at 1 µM (PAK1) of -6% and an inhibition at 1 µM (PHKG2) of 2%. For the same molecule, the inhibition at 1 µM (PKA) was 13%, the inhibition at 1 µM (PKCbeta1) was 4% and the inhibition at 1 µM (PKMYT1) was 5%. For the same molecule, the inhibition at 1 µM (TAOK2) was 5%, the inhibition at 1 µM (TSF1) was 6% and the inhibition at 1 µM (VRK2) was -16%. The inhibition at 1 µM (p38alpha) was 3%.
